The target of this test is T1, protein-farnesyl transferase (PFT) (Rattus norvegicus, UniProt Q02293+Q04631).
T1 construct: a soluble fraction of rat's brain was fractionated; from tissue; host or cells: rat brain, soluble fraction, 30-50% ammonium sulfate cut, Q-Sepharose chromatography
Description: Inhibitory activities against protein-farnesyl transferase (PFT), IC50. The class given is biochemical. The following applies: PFT from rat brain (Q-sepharose fraction); prenyl acceptor H-ras protein or biotin-added Lys-Thr-Ser-Cys-Val-Ile-Met (not stated which for Table 1); [3H]-FPP 0.6 μM; 37° C., 20 min; read-out: 50% inhibitory concentrations against PFT activities, IC50. The method, then: PFT was separated in such a manner that a soluble fraction of rat's brain was fractionated by means of 30%-50% saturated ammonium sulfate, further dialyzed and then subjected to column chromatography by Q-sepharose™ (manufactured by Pharmacia) (Reiss et al., Cell, vol. 62, pp. 81-88 (1990)).
Measurement of PFT activities was conducted by using, as a prenyl acceptor, H-ras protein or a peptide corresponding to the C-terminal 7 amino acid residues of K-rasB protein which had biotin added to the N-terminal (biotin-added Lys-Thr-Ser-Cys-Val-Ile-Met) and, as a prenyl donor, [^3 H]-labeled farnesyl pyrophosphate (FPP) (Reiss et al., Methods: A companion to Methods in Enzymology, vol. 1, No. 3, pp. 241-245 (1990)).
The [^3 H]-labeled farnesyl pyrophosphate (22.5 Ci/mmol) was purchased from New England Nuclear Co. Non-labeled farnesyl pyrophosphate was chemically synthesized from ditrethylammonium phosphate, trans-trans-farnesol and trichloroacetonitrile and purified by a XAD-2-resin column and diethylaminoethylcellulose (Cornforth et al., Methods in Enzymology, vol. 15, pp. 385-390 (1969)). […]
The enzymatic reaction product containing H-ras protein as the prenyl acceptor, was analyzed by SDS-PAGE (sodium dodecyl sulfate/polyacrylamide gel electrophoresis). […]
The measurement of PFT activities using H-ras protein as the prenyl receptor, was also analyzed by a rapid separate method. […]

Molecules are shown by their SMILES.

Turning to `CCOC(=O)/C=C/[C@@H](Cc1ccc(C(=O)Nc2ccccc2)o1)[C@@H](C)N(Cc1ccc2ccccc2c1)C(=O)C(O)=C(CC(=O)O)C(=O)OCC` (relative stereo) [Example 4], the IC50 was 7.8 nM.

With `CCOC(=O)C(CC(=O)O)=C(O)C(=O)N(Cc1ccc2ccccc2c1)[C@H](C)[C@@H](Cc1ccc(C(=O)Nc2ccccc2)o1)C(=O)OC(C)C` (racemic) [Example 2, 3-(ethoxycarbonyl)-4-hydroxy-4-[N-[(1RS,2RS)-2-(isopropoxycarbonyl)-1-methyl-3-{5-(phenylcarbamoyl)-2-furyl}propyl]-N-(2-naphthylmethyl)carbamoyl]-3-butenoic acid], the IC50 was found to be 3.1 nM.

(Values after patent US6048894A, “Substituted amide derivatives” (Banyu Pharmaceutical Co., Ltd., priority 1996, dated 2000).)
